Assay results reported in US20020128189A1, “Ubiquitination of the transcription factor E2A” (President and Fellows of Harvard College, a Massachusetts …, priority 1996, published 2002).
Square brackets hold non-standard residues; d marks the D form. Peptide text beside a SMILES is read from it. * marks the point of attachment. Nle = CCCC[C@H](N)C(=O)O; Nva = CCC[C@H](N)C(=O)O; Cbz = O=C(OCc1ccccc1)*

Columns and labels:
ovalbumin degradation = settings: Rock et al., cited from earlier work; for IC50: read-out: concentration causing 50% inhibition of ovalbumin degradation
[1] = system: p27 inhibitor of cyclin-dependent kinases; settings: cited from earlier work
[2] = system: NF-kB precursor protein p105; settings: cited from earlier work
20S proteasome = target: T1, 20S proteasome (Homo sapiens, UniProt P28074); settings: cited from earlier work
T1 sequence (P28074 60-263): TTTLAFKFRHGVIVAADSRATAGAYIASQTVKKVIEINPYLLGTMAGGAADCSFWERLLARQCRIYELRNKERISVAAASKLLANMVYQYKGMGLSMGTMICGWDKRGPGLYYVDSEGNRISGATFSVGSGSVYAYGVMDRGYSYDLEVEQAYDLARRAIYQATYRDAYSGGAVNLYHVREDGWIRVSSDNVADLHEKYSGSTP

human E12 = assay: Pulse-chase analysis of E12 degradation in COS7 cells treated with proteasome/protease inhibitors; format: cell-based; settings: 60 min pulse, 3 hour chase
Description: FIG. 2 is a bar graph representing the relative expression of E12 after treatment with the proteasome inhibitor MG132 and the protease inhibitor leupeptin, as follows. COS cells were electroporated with a human E12 expression plasmid. After electroporation (48 hours), cells were treated with either DMSO (a diluent for MG132), 50 μM MG132, or 1 μg/ml leupeptin for 1 hour. The cells were then pulse-chased with [^35S] methionine and the cell extracts were immunoprecipitated with anti-E12 antibody and analyzed by SDS-PAGE fluorography. Inhibitors were present throughout the entire pulse-chase period.
Cells in 100 mm dishes (either transfected cells 48 hours after transfection or stable cell lines at about 80% confluence) were starved in Met-free DMEM (supplemented with 5% dialyzed fetal bovine serum) for 60 minutes at 37° C. Cells were then pulse-labeled at 37° C. with 100 μCi/ml [^35S]met for 60 minutes at 37° C. Cells were chased in warm DMEM supplemented with 100 μg/ml Met. For the proteasome inhibitor experiment, the inhibitor MG132 […] was added 1 hour before pulse-chase and was present throughout the entire period. […] Incorporation of ^35S into the total protein pool was determined by trichloroacetic acid (TCA) precipitation. […] The bands were measured using a PhosphorImager (Molecular Dynamics). […]

In the case of `CSCC[C@@H](C=O)NC(=O)[C@H](CC(C)C)NC(=O)[C@H](CC(C)C)NC(C)=O` [LLM, N-acetyl-L-leucinyl-L-leucinyl-methional] (Ac-Leu-Leu-Met-aldehyde), the IC50 (ovalbumin degradation) is listed as > 100000 nM.

For `CCCC[C@@H](C=O)NC(=O)[C@H](CC(C)C)NC(=O)[C@H](CC(C)C)NC(C)=O` [MG101] (Ac-Leu-Leu-[Nle]-aldehyde), the “effect on degradation of the p27 inhibitor of cyclin-dependent kinases” value [1] is listed as “inhibit the degradation”, the “effect on processing of the NF-kB precursor protein p105” value [2] is listed as “block the processing” and the “inhibition of the chymotryptic site on the 20S proteasome” value (“inhibition of the chymotryptic site” for short) (20S proteasome) is listed as “potent inhibitors”.

For `CCC[C@@H](C=O)NC(=O)[C@H](CC(C)C)NC(=O)[C@H](CC(C)C)NC(=O)OCc1ccccc1` [MG115, N-carbobenzoxyl-L-leucinyl-L-leucinyl-L-norvalinal] (Cbz-Leu-Leu-[Nva]-aldehyde), the “inhibition of the chymotryptic site” value (20S proteasome) is given as “potent inhibitors”, the “potency relative to LLnL (ovalbumin proteolysis)” value (ovalbumin degradation) is given as “approximately 5 fold” and the IC50 (ovalbumin degradation) is given as 400 nM.

For `CC(C)C[C@@H](C=O)NC(=O)[C@H](CC(C)C)NC(=O)[C@H](CC(C)C)NC(=O)OCc1ccccc1` [MG132] (Cbz-Leu-Leu-Leu-aldehyde), the “effect on degradation of the p27 inhibitor of cyclin-dependent kinases” value [1] is listed as “inhibit the degradation”, the “effect on processing of the NF-kB precursor protein p105” value [2] is listed as “block the processing” and the “inhibition of the chymotryptic site” value (20S proteasome) is listed as “potent inhibitors”. The “E12 protein stability (effect on E12 degradation)” value (human E12; 50 μM MG132 added 1 hour before and present throughout) was “stabilized”.

In the case of `CC(=O)N[C@@H](CC(C)C)C(=O)N[C@@H](CC(C)C)C(=O)N[C@H](C=O)CCCNC(=N)N` [leupeptin], the “E12 protein stability (effect on E12 degradation)” value (human E12; leupeptin 1 μg/ml added 1 hour before and present throughout) is reported as “no effect”.
